In experiment [1] the test system is platelets in platelet-rich plasma. Put plainly: Har peptide-induced platelet aggregation in platelet-rich plasma. The note with it: Homo sapiens, Platelet, multiple values = individual measurements. The class given is cell-based, human. Here is the method: (§1) The procedure for this assay is similar to that described in Biological Example 2, above. Briefly, platelet aggregation studies were performed according to the method of Bednar et al. (Bednar, B., Condra, C., Gould, R. J., and Connolly, T. M., Thromb. Res., 77:453-463 (1995)). Platelet-rich plasma (PRP) concentrates prepared from healthy volunteers who were aspirin free for at least 7 days by venipuncture using EDTA as anticoagulant was purchased from Biological Specialties, Inc. (Colmar, Pa.). PPP (platelet-poor-plasma) was obtained by centrifugation of PRP at Max (3,000 rpms) for 15 min at room temperature. PRP was diluted to yield platelet count of 300×10^3 platelets/μL with PPP. For thrombin induced platelet aggregation: 118 μL of 500 mM GPRP-NH2 was added to 12 mL of 300×10^3 platelets before using (to clean the fibrinogen in the plasma.) GPRP was added just before the experiment. 15 μL of test compound solutions were added to 120 μL of platelets 5 min prior the agonist additions. Platelet aggregation was initiated by the addition of agonist shown to achieve 60-70% aggregation. Antagonist potency was estimated as a % inhibition of the control Har peptide or thrombin response to obtain an IC50.
(§2) Where multiple values are listed for a particular compound, said numbers represent individual measurements (tests) for said compound.

Experiment [2] shares this test system. Put plainly: Thrombin-induced platelet aggregation in platelet-rich plasma. The class given is cell-based, human. Particulars: multiple values = individual measurements. The method, then: as §1, §2
Experiment [3] concerns washed platelets. Nature of the experiment: Thrombin-induced platelet aggregation in washed platelets. The class given is cell-based, human. Particulars: for IC50: Homo sapiens, Platelet. Here is the method: (§3) Platelet aggregation studies were performed according to the method of Bednar et al. (Bednar, B., Condra, C., Gould, R. J., and Connolly, T. M., Thromb. Res., 77:453-463 (1995)). Platelet-rich plasma (PRP) concentrates prepared from healthy volunteers who were aspirin free for at least 7 days by venipuncture using ACD-A as anticoagulant was purchased from Biological Specialties, Inc. (Colmar, Pa.). PRP was centrifuged at 730 g for 15 min. The platelet pellet was washed twice in CGS buffer (13 mM sodium citrate, 30 mM glucose, 120 mM NaCl, pH 6.5) containing 1 U/ml apyrase (grade V, Sigma-Aldrich, St. Louis, Mo.), 1 mM EGTA, and re-suspended in Tyrode's buffer (140 mM NaCl, 2.7 mM KCl, 12 mM NaHCO3, 0.76 mM Na2HPO4, 5.5 mM dextrose, 5.0 mM HEPES, 0.2% BSA, pH 7.4). The platelets were diluted to 3×10^8 platelets/ml and kept >45 min at 37° C. before use. 105 μl of washed platelets, 2 mM CaCl2 and […] of fibrinogen (for PAR-1 peptide-induced platelet aggregation only) were added to a 96-well microliter plate. Platelet aggregation was initiated by the addition of serial concentrations of Har peptide or thrombin (Alpha; American Diagnostica, Cat. # 470HT, 2,500 NIH Units/mg). Buffer was added to one set of control wells. The assay plate was stirred constantly and intermittently placed in a microplate reader (Softmax, Molecular Devices, Menlo Park, Calif.) to read optical density (650 nm) at 0 and 5 minutes after the addition of the compound solutions. Aggregation was calculated as the decrease in optical density between the time 0- and 5-min measurements and expressed as % of aggregation.
(§4) For the inhibition assay, platelet aggregation measurements were conducted as described, with the additional step of test compound addition. Compounds were prepared in 100% DMSO and stored. On the day of the experiment, the compounds were diluted in the Tyrode's buffer containing 3% of DMSO as a 10× working solution. 15 μl of test compound solutions were added to 105 μl of platelets 5 min prior to CaCl2 and fibrinogen additions. Platelet aggregation was initiated by the addition of agonist shown to achieve 60-70% aggregation. Antagonist potency was estimated as a % inhibition of the control Har peptide or thrombin response to obtain an IC50.
(§5) Representative compounds of the present invention were tested according to the procedure described in Biological Example 2 above, with results in Table 9 below. In Table 9 where multiple values are listed for a particular compound, said numbers represent individual measurements (tests) for said compound.

Experiment [4] deals with washed platelets. Nature of the experiment: Har peptide-induced platelet aggregation in washed platelets. It counts as cell-based. Particulars: Homo sapiens. Here is the method: as §3, §4, §5
For experiment [5], the target named is T1, thrombin receptor (PAR-1) (Homo sapiens, UniProt P25116).
T1 construct: Human aortic smooth muscle cells (HSMC) were purchased from Cascade Biologics; host or cells: human aortic smooth muscle cells (HSMC)
T1 sequence (P25116 22-425): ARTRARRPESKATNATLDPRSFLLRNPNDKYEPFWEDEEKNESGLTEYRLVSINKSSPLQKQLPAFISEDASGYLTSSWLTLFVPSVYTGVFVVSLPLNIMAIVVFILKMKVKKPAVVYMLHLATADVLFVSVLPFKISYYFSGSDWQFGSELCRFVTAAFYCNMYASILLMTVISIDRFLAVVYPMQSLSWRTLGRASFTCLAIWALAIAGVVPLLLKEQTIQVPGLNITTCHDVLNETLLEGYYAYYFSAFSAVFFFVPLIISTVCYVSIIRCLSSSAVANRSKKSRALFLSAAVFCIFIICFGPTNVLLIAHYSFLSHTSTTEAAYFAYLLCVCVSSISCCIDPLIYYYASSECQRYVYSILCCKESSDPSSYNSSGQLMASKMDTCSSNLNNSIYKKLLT
Nature of the experiment: FLIPR-based calcium-flux assay with human smooth muscle cells (Har peptide agonist). It counts as cell-based. Particulars: HSMC; 30 nM Har (PAR1) peptide agonist; 80-min drug incubation; multiple values = individual measurements. The method, then: Human aortic smooth muscle cells (HSMC) were purchased from Cascade Biologics (Portland, Oreg.) and cultured in M-231 containing smooth muscle cell growth supplement and 1× Antibiotic-Antimycotic.
To determine agonist concentration for compound testing: On the day prior to the assay, 100 μL of cells (2×10^5/mL) were seeded in clear, flat-bottom black-wall, tissue culture treated polystyrene 96-well plates and incubated at 37° C., 5% CO2. On the day of the assay, 50 μL of complete dye loading solution (FLIPR Calcium 3 Kit, Molecular Devices) was added to each well containing 100 μL of culture media. The cells were incubated for 30-45 min at 37° C., in 5% CO2 before initiating the assay on the FLIPR. The agonist effect of PAR1 peptide (S-(p-F-Phe)-Har-L-Har-KY-NH2; Har=homoarginine; referred to herein as “Har” peptide) was tested and the EC50 was determined. The EC60-70 dose was used (30 nM) for compound testing.
Compound testing: On the day prior to the assay, 90 μL of cells (2.2×10^5/mL) were seeded in clear, flat-bottom black-wall, tissue culture treated polystyrene 96-well plates and incubated at 37° C., 5% CO2. On the day of the assay, the test compounds were prepared at 10× in 3% DMSO Hanks buffer and 10 μL was added to each well (final DMSO concentration of 0.3%). The cells were incubated 20 min at 37° C., 5% CO2. Culture medium containing testing compounds was dumped and the cells were washed four times with DPBS containing 0.1% of BSA and re-fed with 80 μL of growth medium. 70 μL of BD (fluorescent) dye was loaded to the cells and incubated 45 min at 37° C. incubator. The plates were equilibrated to room temperature for 15 min. 4× PAR1 peptide (30 nM final concentration) agonist plate and the cell plate were placed in FLIPR's assay chamber. 50 μL agonist was added to the cells and data was recorded for 5 min. Raw fluorescence data was exported for each well and tabulated versus time within an ASCII file. Data was then imported into Excel® and the peak response over basal level was determined. The percent inhibition for each test compound was calculated by the changes of fluorescent density as a % inhibition of the control Har peptide response to obtain an IC50.
Representative compounds of the present invention were tested according to the procedure described in Biological Example 1 above, with results in Table 8 below. In Table 8 below, where multiple values are listed for a particular compound, said numbers represent individual measurements (tests) for said compound.

Where “and” joins values, the source holds several entries; their conditions need not be identical. Identical values can stand only once.

A word on the IC50: it is the concentration at which inhibition is half-maximal. In the case of `CC(C)(C)c1cc(C(=O)CN2Cc3cc4c(cc3C2=N)OCc2ncccc2CO4)cc(C(C)(C)C)c1O` [Compound 49], the 50% inhibitory concentration (IC50) in experiment [1] was 390 nM; in experiment [2], 690 nM and 2430 nM; in the experiment with washed platelets [3] it was 0.107 µM; with washed platelets [4] it was 0.068 µM; in experiment [5], 0.019 µM and 0.059 µM and 0.023 µM and 0.038 µM.

In the case of `COc1c(N2CCOCC2)cc(C(=O)CN2Cc3cc4c(cc3C2=N)OCc2nccnc2CO4)cc1C(C)(C)C` [Compound 58], the IC50 is 749 nM in experiment [1]; 803 nM in experiment [2] (Homo sapiens, Platelet); 0.304 µM in the experiment on washed platelets [3]; 0.214 µM in the experiment on washed platelets [4]; 0.103 µM in experiment [5].

Consider `COc1c(N2CCOCC2)cc(C(=O)CN2Cc3cc4c(cc3C2=N)OCc2cc3c(cc2CO4)OCO3)cc1C(C)(C)C` [Compound 59], for which the IC50 in experiment [1] is 6120 nM; in the experiment with washed platelets [3] it was 2.11 µM; in the experiment with washed platelets [4], 1.25 µM; in experiment [5], 0.371 µM.

As to `COC(=O)c1ccc2c(c1)COc1cc3c(cc1OC2)CN(CC(=O)c1cc(N2CCOCC2)c(OC)c(C(C)(C)C)c1)C3=N` [Compound 73], the IC50 was 6710 nM in experiment [1]; 2430 nM and > 10000 nM in experiment [2]; 0.813 µM with washed platelets [3]; 0.446 µM in the experiment on washed platelets [4]; 0.047 µM and 0.057 µM in experiment [5].

With `Cc1sc(C)c2c1COc1cc3c(cc1OC2)C(=N)N(CC(=O)c1cc(C(C)(C)C)c(O)c(C(C)(C)C)c1)C3` [Compound 74], the IC50 was more than 10000 nM in experiment [1]; more than 10000 nM in experiment [2] (Homo sapiens, Platelet); more than 10000 nM in experiment [2]; 0.779 µM in the experiment on washed platelets [4]; 0.15 µM and 0.16 µM in experiment [5]. Besides, the “Washed platelet aggregation IC50 (μM) Thrombin” value in the experiment on washed platelets [3] is given as “variable”.

For the molecule `COc1c(C(C)(C)C)cc(C(=O)CN2Cc3cc4c(cc3C2=N)OCc2ncccc2CO4)cc1C(C)(C)C` [Compound 75], the IC50 in experiment [1] was 3040 nM; in experiment [2], 2190 nM and > 10000 nM; in the experiment on washed platelets [3], more than 10 µM; in the experiment on washed platelets [4], 0.183 µM; in experiment [5] it was 0.39 µM and 0.46 µM.

On to `COc1c(C(C)(C)C)cc(C(=O)CN2Cc3cc4c(cc3C2=N)OCc2cccnc2CO4)cc1C(C)(C)C` [Compound 76], for which the IC50 is 2060 nM in experiment [1]; more than 10000 nM in experiment [2] (Homo sapiens, Platelet); more than 10000 nM in experiment [2]; more than 10 µM in the experiment with washed platelets [3]; 0.309 µM in the experiment with washed platelets [4]; 0.58 µM in experiment [5].

The values above are taken from US8673890B2, “2,3-dihydro-1H-isoindol-1-imine derivatives useful as thrombin PAR-1 receptor antagonist” (Janssen Pharmaceutica NV, priority 2009, dated 2014).
